For data set [1], the system named is 3',5'-Cyclic AMP phosphodiesterase (PDE) from lung. Description: 3',5'-Cyclic AMP phosphodiesterase (PDE) inhibition, rabbit lung enzyme (Fraction II, low Km). The following applies: relative to theophylline, cAMP about 1.7 × 10^-7 M, 30° C., 10 minutes, pH 7.5. It is filed as biochemical.
For data set [2], the system named is 3',5'-Cyclic AMP phosphodiesterase (PDE) from kidney. Put plainly: 3',5'-Cyclic AMP phosphodiesterase (PDE) inhibition, rabbit kidney enzyme (Fraction II, low Km). Conditions: relative to theophylline, cAMP about 1.7 × 10^-7 M, 30° C., 10 minutes, pH 7.5. It is filed as biochemical.
In a further data set the test system is anesthetized dogs. Description: Hemodynamic activity in anesthetized dogs. It is filed as in vivo, dog. Conditions: 10 mg/Kg/hr; vehicle DMSO (Saline for 44-46). The protocol:
Compounds 3, 41, 43-48, 51 were tested in anesthetized dogs for hemodynamic activities including cardiac output, stroke volume and heart rate. For management of low perfusion states such as cardiovascular shock and congestive heart failure, it is desirable to have increased cardiac output and increased stroke volume accompanied by a decrease or no change in heart rate.
% CHANGE OF CARDIAC OUTPUT, STROKE VOLUME AND HEART RATE AT 10 mg/Kg/hr

The nature of data set [3]: Solubility noted in the PDE test (Insoluble). It is filed as physicochemical. Conditions: compound not tested for PDE inhibition. The protocol:
With respect to the compounds which are indicated in Tables I, II and III as being insoluble, although such compounds have not undergone the inhibitory test of Example XVI, due to the similarity in structure to compounds which were tested, it is expected that in vivo testing of the compounds in forms other than solution will readily indicate phosphodiesterase enzyme inhibitory capability.

For the compound `Cc1cc(C)n2nc(SCc3ccccc3)nc2n1` [Compound 3, 2-benzylthio-5,7-dimethyl-s-triazolo[1,5a]pyrimidine], the “PDE Lung; α (I50 theophylline / I50 compound)” value in data set [1] was 2.50. Also, the “PDE Kidney; α (I50 theophylline / I50 compound)” value in data set [2] amounted to 2.10. In the data set with anesthetized dogs, the “% change of cardiac output” value is -1%, the “% change of heart rate” value is on record as -7% and the “% change of stroke volume” value was -7%.

Consider `Cc1cc(C)n2nc(SCc3ccc(Cl)cc3)nc2n1` [Compound 4, 2-(p-chlorobenzylthio)-5,7-dimethyl-s-triazolo[1,5a]pyrimidine], for which, in data set [1], the “PDE Lung; α (I50 theophylline / I50 compound)” value was 4.00. In addition, the “PDE Kidney; α (I50 theophylline / I50 compound)” value in data set [2] turned out to be 4.0.

Turning to `CCCSc1nc2nc(C)cc(C)n2n1` [Compound 7], the “PDE Lung; α (I50 theophylline / I50 compound)” value in data set [1] is 0.90. Moreover, in data set [2], the “PDE Kidney; α (I50 theophylline / I50 compound)” value was 1.00.

For `Cc1cc(C)n2nc(SC(C)C)nc2n1` [Compound 8], in data set [1], the “PDE Lung; α (I50 theophylline / I50 compound)” value stood at 0.10. For the same compound, the “PDE Kidney; α (I50 theophylline / I50 compound)” value in data set [2] is given as 1.30.

As for `CSc1nc2nc(C)cc(C)n2n1` [Compound 9], the “PDE Lung; α (I50 theophylline / I50 compound)” value in data set [1] was found to be 0.50. Besides, in data set [2], the “PDE Kidney; α (I50 theophylline / I50 compound)” value was determined as 0.25.

As for `Cc1cc(C)n2nc(SCC(C)C)nc2n1` [Compound 10], in data set [1], the “PDE Lung; α (I50 theophylline / I50 compound)” value is recorded as 0.10. Besides, the “PDE Kidney; α (I50 theophylline / I50 compound)” value in data set [2] was determined as 0.50.

For `CCOC(=O)C(Sc1nc2nc(C)cc(C)n2n1)C(=O)OCC` [Compound 11], in data set [1], the “PDE Lung; α (I50 theophylline / I50 compound)” value is 0.50. Also, in data set [2], the “PDE Kidney; α (I50 theophylline / I50 compound)” value amounted to 0.00.

As to `Cc1cc(C)n2nc(SCc3ccc(C(=O)O)cc3)nc2n1` [Compound 12], the “PDE Lung; α (I50 theophylline / I50 compound)” value in data set [1] came out at 1.20. In data set [2], the “PDE Kidney; α (I50 theophylline / I50 compound)” value is recorded as 0.70.

Take `Cc1ccc(CSc2nc3nc(C)cc(C)n3n2)cc1` [Compound 13]: the “PDE Lung; α (I50 theophylline / I50 compound)” value in data set [1] is reported as 6.20. Besides, in data set [2], the “PDE Kidney; α (I50 theophylline / I50 compound)” value amounted to 1.00.

Take `Cc1cccc(CSc2nc3nc(C)cc(C)n3n2)c1` [Compound 14]: the “PDE Lung; α (I50 theophylline / I50 compound)” value in data set [1] was determined as 2.00. Also, the “PDE Kidney; α (I50 theophylline / I50 compound)” value in data set [2] is given as 0.70.

With `Cc1cc(C)n2nc(SCc3ccccc3C)nc2n1` [Compound 15], the “PDE Lung; α (I50 theophylline / I50 compound)” value in data set [1] is listed as 3.50. Further, the “PDE Kidney; α (I50 theophylline / I50 compound)” value in data set [2] is reported as 4.00.

For `Cc1cc(C)n2nc(SCc3cc4c(cc3Cl)OCO4)nc2n1` [Compound 16], the “Solubility” value in data set [3] was “Insoluble”.

On to `Cc1cc(C)n2nc(SCc3c(C)ccc4ccccc34)nc2n1` [Compound 17], for which the “Solubility” value in data set [3] is “Insoluble”.

For the compound `Cc1cc(C)n2nc(SCc3ccncc3)nc2n1` [Compound 18], the “PDE Lung; α (I50 theophylline / I50 compound)” value in data set [1] was 0.80. The “PDE Kidney; α (I50 theophylline / I50 compound)” value in data set [2] is recorded as 0.70.

On to `Cc1cc(C)n2nc(SCc3cccnc3)nc2n1` [Compound 19], for which, in data set [1], the “PDE Lung; α (I50 theophylline / I50 compound)” value is reported as 1.17. Moreover, the “PDE Kidney; α (I50 theophylline / I50 compound)” value in data set [2] is on record as 0.00.

On to `Cc1cc(C)n2nc(SCc3ccc4ccccc4n3)nc2n1` [Compound 20], for which the “PDE Lung; α (I50 theophylline / I50 compound)” value in data set [1] stood at 2.00. The “PDE Kidney; α (I50 theophylline / I50 compound)” value in data set [2] worked out at 0.70.

Consider `CCOC(=O)c1ccc(CSc2nc3nc(C)cc(C)n3n2)o1` [Compound 21], for which, in data set [1], the “PDE Lung; α (I50 theophylline / I50 compound)” value is 3.2. Further, the “PDE Kidney; α (I50 theophylline / I50 compound)” value in data set [2] is 1.25.

Consider `Cc1cc(C)n2nc(SCC3CCCO3)nc2n1` (centres unmarked) [Compound 22], for which, in data set [1], the “PDE Lung; α (I50 theophylline / I50 compound)” value stood at 0.60. In addition, the “PDE Kidney; α (I50 theophylline / I50 compound)” value in data set [2] is recorded as 0.00.

Take `Cc1cc(C)n2nc(SCCc3ccccc3)nc2n1` [Compound 23]: the “PDE Lung; α (I50 theophylline / I50 compound)” value in data set [1] is given as 2.50. Also, the “PDE Kidney; α (I50 theophylline / I50 compound)” value in data set [2] amounted to 2.50.

Turning to `Cc1cc(Cl)n2nc(SCc3ccccc3)nc2n1` [Compound 25, 2-benzylthio-7-chloro-5-methyl-s-triazolo[1,5a]pyrimidine], in data set [1], the “PDE Lung; α (I50 theophylline / I50 compound)” value amounted to 4.00. The “PDE Kidney; α (I50 theophylline / I50 compound)” value in data set [2] came out at 1.40.

With `CCCNc1cc(C)nc2nc(SCc3ccccc3)nn12` [Compound 26], the “PDE Lung; α (I50 theophylline / I50 compound)” value in data set [1] is reported as 2.00. Also, the “PDE Kidney; α (I50 theophylline / I50 compound)” value in data set [2] stood at 0.90.

With `Cc1cc(N(C)C)n2nc(SCc3ccccc3)nc2n1` [Compound 28], in data set [1], the “PDE Lung; α (I50 theophylline / I50 compound)” value is listed as 8.00. In data set [2], the “PDE Kidney; α (I50 theophylline / I50 compound)” value worked out at 3.40.

For `Cc1cc(N2CCCCC2)n2nc(SCc3ccccc3)nc2n1` [Compound 30], in data set [1], the “PDE Lung; α (I50 theophylline / I50 compound)” value came to 10.0. For the same compound, in data set [2], the “PDE Kidney; α (I50 theophylline / I50 compound)” value is 3.20.

Turning to `Cc1cc(N2CCOCC2)n2nc(SCc3ccccc3)nc2n1` [Compound 31], the “PDE Lung; α (I50 theophylline / I50 compound)” value in data set [1] is listed as 7.70. In data set [2], the “PDE Kidney; α (I50 theophylline / I50 compound)” value was 4.80.

In the case of `Cc1cc(NN(C)C)n2nc(SCc3ccccc3)nc2n1` [Compound 33], in data set [1], the “PDE Lung; α (I50 theophylline / I50 compound)” value was determined as 5.30. Further, in data set [2], the “PDE Kidney; α (I50 theophylline / I50 compound)” value is 8.00.

Consider `CCOC(=O)c1cnc2nc(SCc3ccccc3)nn2c1O` [Compound 34, 2-benzylthio-6-carbethoxy-7-hydroxy-s-triazolo [1,5a]pyrimidine], for which, in data set [1], the “PDE Lung; α (I50 theophylline / I50 compound)” value is recorded as 0.00. For the same compound, in data set [2], the “PDE Kidney; α (I50 theophylline / I50 compound)” value is 0.00.

Consider `CCOC(=O)c1cnc2nc(SCc3ccccc3)nn2c1Cl` [Compound 35, 2-benzylthio-6-carbethoxy-7-chloro-s-triazolo[1,5a]pyrimidine], for which the “Solubility” value in data set [3] is given as “Insoluble”.

On to `CCOC(=O)c1cnc2nc(SCc3ccccc3)nn2c1N1CCOCC1` [Compound 36], for which the “PDE Lung; α (I50 theophylline / I50 compound)” value in data set [1] was 6.90. In data set [2], the “PDE Kidney; α (I50 theophylline / I50 compound)” value was 2.90.

Turning to `CCOC(=O)c1cnc2nc(SCc3ccccc3)nn2c1NCc1ccccc1` [Compound 37], the “Solubility” value in data set [3] is “Insoluble”.

As for `CCOC(=O)c1cnc2nc(SCc3ccccc3)nn2c1NCCO` [Compound 38], the “Solubility” value in data set [3] is listed as “Insoluble”.

Take `CCOC(=O)c1cnc2nc(SCc3ccccc3)nn2c1S` [Compound 40, 2-BENZYLTHIO-6-CARBETHOXY-7-MERCAPTO-s-TRIAZOLO[1,5a] PYRIMIDINE]: in data set [3], the “Solubility” value is reported as “Insoluble”.

As for `CCCc1cc(CCC)n2nc(SCc3ccccc3)nc2n1` [Compound 41, 2-benzylthio-5,7-di-n-propyl-1,2,4-triazolo[1,5a]pyrimidine], in the data set with anesthetized dogs, the “% change of cardiac output” value was “+23%”, the “% change of heart rate” value is -4.2% and the “% change of stroke volume” value is “+27%”.

As for `CCCc1cc(CCC)n2nc(SCc3ccc(C)cc3)nc2n1` [Compound 43, 5,7-di-n-propyl-2-(4-methylbenzyl)thio-1,2,4-triazolo[1,5a]pyrimidine], in the data set with anesthetized dogs, the “% change of cardiac output” value was “+34.3%”, the “% change of heart rate” value is reported as -2.8% and the “% change of stroke volume” value was “+3.8%”.

In the case of `CCCc1cc(CCC)n2nc(SCc3ccc(C(=O)O)cc3)nc2n1` [Compound 44, 5,7-di-n-propyl-2-(4-carboxybenzyl)thio-1,2,4-triazolo[1,5a]pyrimidine], in the data set on anesthetized dogs, the “% change of cardiac output” value is “+18%”, the “% change of heart rate” value is listed as “+0.2%” and the “% change of stroke volume” value is “+18%”.

Turning to `CCCc1cc(CCC)n2nc(SCc3ccncc3)nc2n1` [Compound 45, 5,7-di-n-propyl-2-(4-picolyl)thio-1,2,4-triazolo[1,5a]pyrimidine], in the data set with anesthetized dogs, the “% change of cardiac output” value is on record as “+27%”, the “% change of heart rate” value is -8.1% and the “% change of stroke volume” value is “+39%”.

Turning to `CCCc1cc(CCC)n2nc(SCc3cccnc3)nc2n1` [Compound 46, 5,7-di-n-propyl-2-(3-picolyl)thio-1,2,4-triazolo[1,5a]pyrimidine], in the data set on anesthetized dogs, the “% change of cardiac output” value was “+20%”, the “% change of heart rate” value is given as -10.9% and the “% change of stroke volume” value is listed as “+35%”.

`CCCc1cc(CCC)n2nc(S(=O)(=O)Cc3ccccc3)nc2n1` [Compound 47, 2-benzylsulfonyl-5,7-di-n-propyl-1,2,4-triazolo[1,5a]pyrimidine]: in the data set on anesthetized dogs, the “% change of cardiac output” value is “+35.6%”, the “% change of heart rate” value is listed as “+0.2%” and the “% change of stroke volume” value was “+34.7%”.

As for `CCCc1cc(CCC)n2nc(S(=O)(=O)Cc3ccc(C)cc3)nc2n1` [Compound 48, 5,7-di-n-propyl-2-(4-methylbenzyl)sulfonyl-1,2,4-triazolo[1,5a]pyrimidine], in the data set on anesthetized dogs, the “% change of cardiac output” value was “+16.4%”, the “% change of heart rate” value is recorded as -14.3% and the “% change of stroke volume” value is “+36.1%”.

Turning to `CC(=O)Cc1cc(C)nc2nc(SCc3ccccc3)nn12` [Compound 51, 2-BENZYLTHIO-5-METHYL-7-(2-ACETONYL)-1,2,4-TRIAZOLO [1,5a]PYRIMIDINE], in the data set on anesthetized dogs, the “% change of cardiac output” value was “+46.2%”, the “% change of heart rate” value is listed as “+3.3%” and the “% change of stroke volume” value was “+42.0%”.
